Tests used:
Experiment in all cases: Kinase Inhibition Assay
[1] = biological target: Cyclin-A2/Cyclin-dependent kinase 2 (Homo sapiens, UniProt P24941)
Method: (§1) The enzyme was assayed with a biotinylated peptide substrate and test compounds in the presence of 10 uM ATP/[gamma-33P]ATP in a streptavidin coated FlashPlate (Perkin-Elmer, Boston, MA). Inhibition of the enzymatic activity due to the compound was measured by observing a reduced amount of 33P-gamma-ATP incorporated into the immobilized peptide relative to untreated controls. Linear regression analysis of the percent of inhibition by the test compound was used to calculate IC50 values.

[2] = biological target: Cyclin-dependent kinase 4/G1/S-specific cyclin-D1 (Mus musculus, UniProt P30285)
Chain of Cyclin-dependent kinase 4/G1/S-specific cyclin-D1 (P25322 whole entry): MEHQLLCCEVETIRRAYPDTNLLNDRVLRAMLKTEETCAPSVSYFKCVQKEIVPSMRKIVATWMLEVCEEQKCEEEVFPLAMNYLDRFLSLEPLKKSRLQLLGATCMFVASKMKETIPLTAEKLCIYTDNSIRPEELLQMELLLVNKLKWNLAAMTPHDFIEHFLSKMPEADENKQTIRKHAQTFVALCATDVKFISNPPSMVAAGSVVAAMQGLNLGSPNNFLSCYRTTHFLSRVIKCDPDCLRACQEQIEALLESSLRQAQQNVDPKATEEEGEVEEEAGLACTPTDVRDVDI
Chain of Cyclin-dependent kinase 4/G1/S-specific cyclin-D1 (P30285 whole entry): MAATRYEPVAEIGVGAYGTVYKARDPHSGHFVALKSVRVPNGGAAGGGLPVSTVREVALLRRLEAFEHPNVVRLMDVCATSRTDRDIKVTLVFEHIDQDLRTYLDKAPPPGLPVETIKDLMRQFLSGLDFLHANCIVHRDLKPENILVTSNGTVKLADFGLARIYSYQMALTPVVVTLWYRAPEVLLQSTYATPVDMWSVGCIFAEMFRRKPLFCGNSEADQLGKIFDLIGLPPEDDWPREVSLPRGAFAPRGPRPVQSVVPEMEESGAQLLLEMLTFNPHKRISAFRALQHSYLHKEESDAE
Method: as §1

[3] = biological target: Cyclin-dependent kinase/G2/mitotic-specific cyclin- 1 (Homo sapiens, UniProt P06493); conditions: pH 8; 30 °C
Chain of Cyclin-dependent kinase/G2/mitotic-specific cyclin- 1 (P06493 whole entry): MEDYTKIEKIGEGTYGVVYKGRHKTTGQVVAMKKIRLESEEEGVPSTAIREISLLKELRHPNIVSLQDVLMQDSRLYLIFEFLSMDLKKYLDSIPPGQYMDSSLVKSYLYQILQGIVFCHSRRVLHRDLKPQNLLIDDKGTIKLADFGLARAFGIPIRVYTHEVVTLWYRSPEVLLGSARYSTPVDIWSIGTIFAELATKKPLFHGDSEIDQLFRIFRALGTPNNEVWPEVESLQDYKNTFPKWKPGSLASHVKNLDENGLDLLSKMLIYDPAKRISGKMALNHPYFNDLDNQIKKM
Chain of Cyclin-dependent kinase/G2/mitotic-specific cyclin- 1 (P14635 whole entry, further chain): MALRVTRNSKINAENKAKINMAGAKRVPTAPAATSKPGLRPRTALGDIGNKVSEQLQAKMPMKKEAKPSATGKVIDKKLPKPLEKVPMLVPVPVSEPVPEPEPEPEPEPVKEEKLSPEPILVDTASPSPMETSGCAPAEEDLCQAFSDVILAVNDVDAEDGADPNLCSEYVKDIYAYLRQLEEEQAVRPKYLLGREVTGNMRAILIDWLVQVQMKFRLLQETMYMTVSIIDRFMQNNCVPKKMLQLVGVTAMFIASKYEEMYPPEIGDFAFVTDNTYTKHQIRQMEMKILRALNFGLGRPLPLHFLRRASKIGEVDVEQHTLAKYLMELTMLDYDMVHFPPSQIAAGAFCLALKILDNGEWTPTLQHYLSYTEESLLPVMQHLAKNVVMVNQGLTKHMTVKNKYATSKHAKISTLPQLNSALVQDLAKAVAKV
Method: as §1

[4] = biological target: Vascular endothelial growth factor receptor 2 (Rattus norvegicus, UniProt O08775)
Chain of Vascular endothelial growth factor receptor 2 (O08775 whole entry): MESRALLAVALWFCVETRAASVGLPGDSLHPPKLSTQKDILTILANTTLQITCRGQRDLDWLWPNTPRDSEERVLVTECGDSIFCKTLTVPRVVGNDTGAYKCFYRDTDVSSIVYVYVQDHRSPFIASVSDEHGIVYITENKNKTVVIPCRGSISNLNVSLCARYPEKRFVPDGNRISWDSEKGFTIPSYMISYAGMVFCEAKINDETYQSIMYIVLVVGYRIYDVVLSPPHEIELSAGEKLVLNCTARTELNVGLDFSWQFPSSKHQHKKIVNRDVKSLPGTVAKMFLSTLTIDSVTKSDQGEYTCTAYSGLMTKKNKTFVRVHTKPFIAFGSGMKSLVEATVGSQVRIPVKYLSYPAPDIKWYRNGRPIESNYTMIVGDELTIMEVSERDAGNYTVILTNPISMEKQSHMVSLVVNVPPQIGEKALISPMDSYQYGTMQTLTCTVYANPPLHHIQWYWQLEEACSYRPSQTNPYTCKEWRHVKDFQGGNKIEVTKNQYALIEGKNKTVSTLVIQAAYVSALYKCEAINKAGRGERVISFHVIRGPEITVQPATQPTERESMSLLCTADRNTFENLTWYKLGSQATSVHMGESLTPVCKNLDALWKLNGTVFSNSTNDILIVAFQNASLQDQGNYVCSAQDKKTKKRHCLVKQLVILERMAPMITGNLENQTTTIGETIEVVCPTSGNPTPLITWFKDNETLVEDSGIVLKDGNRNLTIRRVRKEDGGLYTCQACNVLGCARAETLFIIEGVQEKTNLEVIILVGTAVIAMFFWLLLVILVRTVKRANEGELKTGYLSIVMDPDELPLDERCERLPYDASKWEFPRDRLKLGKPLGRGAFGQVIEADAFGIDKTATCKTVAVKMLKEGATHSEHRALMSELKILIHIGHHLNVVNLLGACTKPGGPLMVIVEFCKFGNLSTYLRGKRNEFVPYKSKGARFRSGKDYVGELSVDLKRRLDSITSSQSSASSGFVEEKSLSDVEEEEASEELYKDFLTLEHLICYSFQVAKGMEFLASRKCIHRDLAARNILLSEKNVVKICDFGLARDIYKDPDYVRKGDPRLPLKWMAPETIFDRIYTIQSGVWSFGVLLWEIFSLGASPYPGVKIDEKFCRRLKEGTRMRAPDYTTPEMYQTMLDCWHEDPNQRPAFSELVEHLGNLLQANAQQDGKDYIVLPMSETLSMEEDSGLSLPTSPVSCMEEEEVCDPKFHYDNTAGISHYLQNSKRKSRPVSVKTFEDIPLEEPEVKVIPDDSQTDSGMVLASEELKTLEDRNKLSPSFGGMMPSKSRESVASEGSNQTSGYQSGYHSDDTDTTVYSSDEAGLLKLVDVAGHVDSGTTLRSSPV
Method: as §1

Row | SMILES | IC50 [1] [nM] | IC50 [2] [nM] | IC50 [3] [nM] | IC50 [4] [nM]
1 | Cc1ccc(F)c(C(=O)n2nc(Nc3ccc(S(N)(=O)=O)cc3)nc2N)c1F [4-({5-amino-1-[(2,6-difluoro-3-methylphenyl)carbonyl]-1H-1,2,4-triazol-3-yl}amino)benzene-1-sulfonamide] | 0.3 | 190 | 8 | 510
2 | Nc1nc(Nc2ccc(S(N)(=O)=O)cc2)nn1C(=O)c1c(F)ccc(F)c1F [4-[[5-Amino-1-(2,3,6-trifluorobenzoyl)-1H-1,2,4-triazol-3-yl]amino]-benzenesulfonamide] |  |  | 3.2 | 

From BindingDB's records for doi:10.1021/jm050267e (Johnson & Johnson Pharmaceutical, 2005)
